# Measurements from a melting point compilation (Tetko et al.).
row,SMILES,melting point
1,CNC(=O)c1cccc(CCl)c1,61 to 63 °C
2,COc1cc(C(C)=O)ccc1S(=O)(=O)C(F)F,134 to 136 °C
3,NS(=O)(=O)Cc1ccc(F)cc1,122 to 124 °C
4,O=S(=O)(Cl)C1CCCCC1O (centres undefined),49 to 51 °C
5,COc1ccc(S(=O)(=O)Cl)c(C)c1C,84 to 86 °C
6,Nc1ccc(CCN2CCCCC2)cc1,54 to 56 °C
7,Clc1ccc2oc(C3CCNCC3)nc2c1,86 to 88 °C
8,Nn1cnc2ccccc21,147 to 149 °C
9,O=C(O)C1CC(=O)N(Cc2cccc(C(F)(F)F)c2)C1 (centres undefined),109 to 111 °C
10,Nc1ccc(Oc2ccc(S(N)(=O)=O)cc2)cc1,196 to 198 °C
11,CC(C)c1ccc(C(=O)CC#N)cc1,91 to 93 °C
12,Cc1cc(OS(C)(=O)=O)nc2c1cnn2C(C)C,78 to 80 °C
13,Cc1cc(NN)nc(-c2ccccn2)n1,175 to 177 °C
14,NC(=S)Cn1ccc(=O)[nH]c1=O,256 to 258 °C
15,Cn1c(=O)oc2ccc(N)cc21,229 to 231 °C
16,FC(F)(F)CNc1ccncc1,157 to 159 °C
17,Nc1cccc(C(=O)NCc2ccccn2)c1,119 to 121 °C
18,CC(C)C(Br)C(=O)N1CCc2sccc2C1 (centres undefined),84 to 86 °C
19,O=C(O)c1ccc(NC(=O)c2cc(Cl)cc(Cl)c2)cc1,305 to 307 °C
20,NC(=O)CC1CC1,125 to 127 °C
21,Cc1nnc(CCl)o1,32 to 40 °C
22,Nc1ccc(-c2cc[nH]n2)cc1,99 to 101 °C

row,SMILES,melting point
1,CN(CC(=O)O)C(=O)c1ccsc1,56 to 57 °C
2,O=C(O)c1cc(N2CCCC2=O)ccc1Cl,159 to 161 °C
3,O=C(O)C=Cc1cc(Cl)ccc1OCc1ccccc1Cl,195 to 197 °C
4,O=C(O)Cn1cc([N+](=O)[O-])cn1,153 to 155 °C
5,O=C1Nc2c(ccc(Cl)c2F)C1=O,200 to 202 °C
6,CC(=O)c1cnn(-c2ccc(F)cc2)c1C,87 to 89 °C
7,CNc1ccc(S(C)(=O)=O)cc1,126 to 128 °C
8,Oc1ccccc1CNC1CCCCC1,61 to 63 °C
9,Sc1nnc(-c2ccc3c(c2)OCO3)o1,179 to 181 °C
10,Clc1nccn2cnnc12,195 to 197 °C
11,CCn1c2ccccc2c2cc(/C=C/C(=O)O)ccc21,243 to 245 °C
12,O=C1C=CC(=O)N1CCc1ccc(F)cc1,79 to 81 °C
13,Nc1ccccc1OCC(=O)N1CCOCC1,111 to 113 °C
14,CCCOc1nc(C(=O)O)cc2ccccc12,159 to 161 °C
15,O=c1ccc(-c2ccccc2)n[nH]1,201 to 204 °C
16,CCn1cc(S(=O)(=O)Cl)nc1C,65 to 67 °C
17,FC(F)(F)c1ccc(-n2nnnc2CCl)cc1,56 to 58 °C
18,OCC#Cc1ccc(Oc2ccccc2)cc1,42 to 44 °C
19,CC(=O)c1ccc(OCC(=O)Nc2ccccc2)cc1,94 to 96 °C
20,O=C(O)C1CC(=O)N(c2ccc3c(c2)OCO3)C1 (centres undefined),172 to 174 °C
21,CC(=O)Cn1c(CCl)nc2ccccc2c1=O,167 to 169 °C
22,OC(CNCc1ccccc1)C(F)(F)F (centres undefined),58 to 60 °C

# Results, then the molecule that gave them:
row,melting point,SMILES
1,289 to 291 °C,Nc1cnc(Cl)cc1C(=O)O
2,270 to 272 °C,NC1=C(c2nc3ccccc3[nH]2)C(=O)CN1NC(=O)c1cccs1
3,89 to 91 °C,Cc1ccc(NC(=O)C2CSCN2)c(C)c1 (centres undefined)
4,117 to 121 °C,O=[N+]([O-])c1ccc(O)c(Cc2ccccc2)c1
5,119 to 122 °C,CC(C)(C)CCN1CCNCC1
6,158 to 160 °C,Nc1ccc(-n2ncc3ccccc32)cc1
7,67 to 69 °C,NCc1cccc(S(=O)(=O)N2CCCCC2)c1
8,183 to 185 °C,O=C(O)c1ccccc1Sc1ccc(Br)cn1
9,169 to 171 °C,O=C1CCCc2c1[nH]c1ccccc21
10,264 to 266 °C,CC(=O)c1ccc2[nH]c(=O)[nH]c2c1
11,90 to 92 °C,NNC(=O)CO
12,51 to 53 °C,CCOC(=O)C(=O)CC(=O)c1ccc(OC)cc1
13,34 to 36 °C,O=S(=O)(Cl)N1CCCC2CCCCC21 (centres undefined)
14,217 to 219 °C,Cc1ccc(C)c(S(=O)(=O)Nc2cccc(C(=O)O)c2)c1
15,77 to 79 °C,NCc1ccc(-c2ccc3c(c2)CCO3)cc1
16,47 to 49 °C,COCCOc1cccc(CC(=O)O)c1
17,188 to 189 °C,O=c1[nH]nnn1-c1ccccc1
18,76 to 78 °C,Cc1nnc(CN)s1
19,237 to 239 °C,Cc1nnc(NN)[nH]c1=O
20,65 to 67 °C,Cc1cc(C=O)ccc1[N+](=O)[O-]

row,melting point,SMILES
1,186 to 188 °C,CS(=O)(=O)Cc1ccc(C(=O)O)o1
2,98 to 100 °C,NNC(=O)CCSc1ccc(F)cc1
3,77 to 79 °C,COc1ccc(C(=O)c2ccccc2Cl)cc1
4,156 to 158 °C,CC(=CC(=O)O)c1cccc(Cl)c1
5,159 to 161 °C,CN(C)C=Nc1[nH]ncc1C#N
6,160 to 162 °C,O=C(O)CNC(=O)c1ccc(Br)cc1
7,109 to 111 °C,OC1CCN(c2ccc(Cl)nn2)CC1
8,107 to 109 °C,CNc1ccc(C(=O)N2CCOCC2)cc1C
9,95 to 97 °C,OC(CNCc1ccccc1)c1cccs1 (centres undefined)
10,156 to 158 °C,CC(NC(=O)CC1CCCCC1)C(=O)O (centres undefined)
11,54 to 56 °C,CS(=O)(=O)N1CCCC(Cl)C1 (centres undefined)
12,99 to 101 °C,CC(C)(C)C(=O)NC1CCCNC1 (centres undefined)
13,199 to 201 °C,NC(=S)c1cc(Br)cs1
14,90 to 92 °C,Cc1cc(C)n(CCS(C)(=O)=O)n1
15,243 to 245 °C,O=C(O)c1ccc(I)c(Br)c1
16,92 to 94 °C,Cc1ccc(-c2nc(C=O)co2)cc1
17,194 to 196 °C,O=C(O)c1cc(S(=O)(=O)N2CCCC2)ccc1Cl
18,240 to 242 °C,NC(=S)c1cccc(C(=O)O)c1
19,179 to 181 °C,Cc1nn(CC(=O)O)c(C)c1[N+](=O)[O-]
20,178 to 180 °C,CCN(c1ccccc1)c1ccc(C(=O)O)cc1

row,melting point,SMILES
1,127 to 129 °C,Cc1n[nH]c(C2CCCCC2)n1
2,159 to 161 °C,COc1ccc(Cl)c(NC(=O)NN)c1
3,64 to 66 °C,CCOc1ccccc1C=NO
4,49 to 51 °C,NCc1cnn(-c2ccc(F)cc2F)c1
5,159 to 161 °C,O=C1CCCc2nc(-c3ccncc3)sc21
6,33 to 35 °C,N#Cc1cc2ccccc2o1
7,105 to 107 °C,COC(=O)CNc1ccc(Br)cn1
8,276 to 278 °C,CN1CCN(S(=O)(=O)c2ccc(Cl)c([N+](=O)[O-])c2)CC1
9,143 to 145 °C,CCc1ccc(OCc2nnc(S)n2C(C)c2ccccc2)cc1 (centres undefined)
10,49 to 51 °C,Brc1ccc(OCCc2ccccc2)cc1
11,208 to 210 °C,CCn1c(S)nnc1CCC(N)=O
12,156 to 158 °C,O=C(O)c1ccc(OCC2CC2)nc1
13,134 to 136 °C,CC(C)(C)NC(=O)N1CCCc2c(C(=O)O)cccc21
14,137 to 139 °C,Nc1ccc(Oc2cccc(F)c2)c2ccncc12
15,131 to 133 °C,Cc1nc(N)n(-c2ccccc2)n1
16,158 to 162 °C,O=C(O)c1cc(S(=O)(=O)Cl)c(Cl)cc1Cl
17,169 to 171 °C,CCOC(=O)C1=C(CCl)NC(=O)NC1c1ccc(OC)cc1 (centres undefined)
18,104 to 106 °C,COc1ccc(Nc2ccccc2)cc1
19,106 to 108 °C,O=C(O)CCn1cnc2ccccc21
20,100 to 102 °C,Sc1nc(-c2ccccc2Cl)no1
